BindingDB's records for patent US20250115591 (Inflazome, 2025)

These molecules were tested against NACHT, LRR and PYD domains-containing protein 3 (Homo sapiens, UniProt Q96P20) (assay: THP-1 Cells Pyroptosis Assay).
Description: 1. Seed THP-1 cells (25,000 cells/well) containing 1.0 μg/ml LPS in 40μ of RPMI medium (without FBS) in 96-well, black walled, clear bottom cell culture plates coated with poly-D-lysine (VWR #734-0317)2. Add 5 μl compound (8 points half-log dilution, with […]) or vehicle (DMSO 0.1% FAC) to the appropriate wells3. Incubate for 3 hrs at 37° C. and 5% CO24. Add 5 μl nigericin (Sigma #N7143) (FAC 5 μM) to all wells5. Incubate for 1 hr at 37° C. and 5% CO26. At the end of the incubation period, spin plates at 300×g for 3 mins and remove supernatant7. Then add 50 μl of resazurin (Sigma #R7017) (FAC 100 μM resazurin in RPMI medium without FBS) and incubate plates for a further 1-2 hrs at 37° C. and 5% CO28. Plates were read in an Envision reader at Ex 560 nm and Em 590 nm9. IC50 data is fitted to a non-linear regression equation (log inhibitor vs response-variable slope 4-parameters)

Chain of NACHT, LRR and PYD domains-containing protein 3 (Q96P20 whole entry, the tested form may be a part): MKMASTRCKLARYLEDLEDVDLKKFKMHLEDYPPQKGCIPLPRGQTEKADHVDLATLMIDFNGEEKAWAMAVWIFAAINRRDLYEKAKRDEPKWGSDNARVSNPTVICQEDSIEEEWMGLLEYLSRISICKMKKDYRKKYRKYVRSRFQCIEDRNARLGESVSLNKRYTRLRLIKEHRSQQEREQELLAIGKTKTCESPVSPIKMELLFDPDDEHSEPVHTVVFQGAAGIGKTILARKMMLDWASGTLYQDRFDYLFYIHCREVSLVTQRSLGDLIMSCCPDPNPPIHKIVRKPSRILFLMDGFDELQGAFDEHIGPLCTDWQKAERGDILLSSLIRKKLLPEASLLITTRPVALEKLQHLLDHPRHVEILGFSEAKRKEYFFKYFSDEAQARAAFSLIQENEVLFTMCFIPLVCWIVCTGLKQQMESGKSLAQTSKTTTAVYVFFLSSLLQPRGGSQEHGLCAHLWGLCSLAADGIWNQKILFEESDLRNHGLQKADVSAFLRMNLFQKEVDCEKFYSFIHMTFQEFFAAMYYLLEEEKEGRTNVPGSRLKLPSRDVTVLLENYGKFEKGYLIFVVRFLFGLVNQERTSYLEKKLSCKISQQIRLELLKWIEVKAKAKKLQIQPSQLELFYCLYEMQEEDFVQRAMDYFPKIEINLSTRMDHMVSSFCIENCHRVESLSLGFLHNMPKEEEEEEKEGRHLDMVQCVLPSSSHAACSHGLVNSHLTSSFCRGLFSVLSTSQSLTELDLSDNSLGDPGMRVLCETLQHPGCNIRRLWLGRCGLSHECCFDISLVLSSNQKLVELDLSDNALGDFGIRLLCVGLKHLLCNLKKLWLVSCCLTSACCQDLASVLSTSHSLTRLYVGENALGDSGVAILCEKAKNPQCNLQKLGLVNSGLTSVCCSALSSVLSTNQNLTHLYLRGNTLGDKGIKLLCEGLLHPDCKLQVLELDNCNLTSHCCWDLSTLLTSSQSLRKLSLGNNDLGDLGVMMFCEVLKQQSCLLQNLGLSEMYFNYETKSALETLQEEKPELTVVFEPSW

How did the IC50 turn out when `CCCCCCn1cc(S(=O)(=O)NC(=O)Nc2c3c(cc4c2CCC4)CCC3)c(=O)[nH]c1=O` [US20250115591, Example 17] was run?
The IC50 was under 10 µM.

`CC(C)N1[C@@H]2CC[C@H]1C[C@H](S(=O)(=O)NC(=O)Nc1c3c(cc4c1CCC4)CCC3)C2` [US20250115591, Example 69] was tested. Which IC50 did it give?
Its IC50 is under 1 µM.

Which IC50 does the source give for `O=C(Nc1c2c(cc3c1CCC3)CCC2)NS(=O)(=O)C1CN(C2CCC2)C1` [US20250115591, Example 18] here?
The IC50 was under 1 µM.

For `O=C(Nc1c2c(cc3c1CCC3)CCC2)NS(=O)(=O)C1CN(C2CCCC2)C1` [US20250115591, Example 99], which IC50 is on record?
The IC50 was under 1 µM.

With `CCNC(=O)N1CCC(S(=O)(=O)NC(=O)Nc2c3c(cc4c2CCC4)CCC3)CC1` [US20250115591, Example 26] as the molecule, how does the IC50 read?
Its IC50 is under 10 µM.

Which IC50 does the source give for `O=C(Nc1c2c(cc3c1CCC3)CCC2)NS(=O)(=O)C1CN(C2CC2)C1` [US20250115591, Example 85] here?
The IC50 was under 1 µM.

How did the IC50 turn out when `C=CCN1CC(S(=O)(=O)NC(=O)Nc2c3c(cc4c2CCC4)CCC3)C1` [US20250115591, Example 132] was run?
Its IC50 is under 1 µM.

Which IC50 does the source give for `CCCCN1CC(S(=O)(=O)NC(=O)Nc2c3c(cc4c2CCC4)CCC3)C1` [US20250115591, Example 83] here?
Its IC50 is under 10 µM.

Which IC50 does the source give for `CCNC(=O)N1CCC(S(=O)(=O)NC(=O)Nc2c3c(cc4c2CCC4)CCC3)C1` (stereo unspecified) [US20250115591, Example 30] here?
Its IC50 is under 10 µM.

For `CN1CC(N2[C@@H]3CC[C@H]2C[C@@H](S(=O)(=O)NC(=O)Nc2c4c(cc5c2CCC5)CCC4)C3)C1` [US20250115591, Example 146], which IC50 is on record?
The IC50 was under 10 µM.

`CCC(C)N1CCC(S(=O)(=O)NC(=O)Nc2c3c(cc4c2CCC4)CCC3)C1` (stereo unspecified) [US20250115591, Example 82] was tested. Which IC50 did it give?
The IC50 was under 10 µM.

Which IC50 does the source give for `CC(C)N1[C@@H]2CC[C@H]1C[C@@H](S(=O)(=O)NC(=O)Nc1c3c(cc4c1CCC4)CCC3)C2` [US20250115591, Example 45] here?
Its IC50 is under 1 µM.

`CCC(C)N1CC(S(=O)(=O)NC(=O)Nc2c(C(C)C)cc(Cl)cc2C(C)C)C1` (stereo unspecified) [US20250115591, Example 187] was tested. Which IC50 did it give?
Its IC50 is under 10 µM.

For `CC(=O)N1CCCC(S(=O)(=O)NC(=O)Nc2c3c(cc4c2CCC4)CCC3)C1` (stereo unspecified) [US20250115591, Example 56], which IC50 is on record?
The IC50 was under 10 µM.

Which IC50 does the source give for `N#CCN1CC(S(=O)(=O)NC(=O)Nc2c3c(cc4c2CCC4)CCC3)C1` [US20250115591, Example 87] here?
Its IC50 is under 10 µM.

For `CC(C)NC(=O)N1CCCC(S(=O)(=O)NC(=O)Nc2c3c(cc4c2CCC4)CCC3)C1` (stereo unspecified) [US20250115591, Example 33], which IC50 is on record?
The IC50 was under 10 µM.

How did the IC50 turn out when `C[C@@H](O)Cn1cc(S(=O)(=O)NC(=O)Nc2c3c(cc4c2CCC4)CCC3)ccc1=O` [US20250115591, Example 183] was run?
Its IC50 is under 1 µM.

For `CC(=O)N1CCC(S(=O)(=O)NC(=O)Nc2c3c(cc4c2CCC4)CCC3)C1` (stereo unspecified) [US20250115591, Example 38], which IC50 is on record?
Its IC50 is under 10 µM.

With `Cn1cc(S(=O)(=O)NC(=O)Nc2c3c(cc4c2CCC4)CCC3)c(=O)n(C)c1=O` [US20250115591, Example 16] as the molecule, how does the IC50 read?
The IC50 was under 10 µM.

`O=C(Nc1c2c(cc3c1CCC3)CCC2)NS(=O)(=O)C1CN(C2CCCCC2)C1` [US20250115591, Example 98] was tested. Which IC50 did it give?
Its IC50 is under 1 µM.

`CC(C)N1CC(S(=O)(=O)NC(=O)Nc2c3c(cc4c2CCC4)CCC3)CC1C(=O)N(C)C` (stereo unspecified) [US20250115591, Example 148] was tested. Which IC50 did it give?
The IC50 was under 10 µM.

With `CC(C)(C)N1CC(S(=O)(=O)NC(=O)Nc2c3c(cc4c2CCC4)CCC3)C1` [US20250115591, Example 93] as the molecule, how does the IC50 read?
Its IC50 is under 1 µM.

With `O=C(Nc1c2c(cc3c1CCC3)CCC2)NS(=O)(=O)C1CN(C2CNC2)C1` [US20250115591, Example 114] as the molecule, how does the IC50 read?
The IC50 was under 10 µM.

`CN(C)C(=O)CN1CC(S(=O)(=O)NC(=O)Nc2c3c(cc4c2CCC4)CCC3)C1` [US20250115591, Example 21] was tested. Which IC50 did it give?
Its IC50 is under 10 µM.

`CCN1CCCC(S(=O)(=O)NC(=O)Nc2c3c(cc4c2CCC4)CCC3)CC1` (stereo unspecified) [US20250115591, Example 194] was tested. Which IC50 did it give?
Its IC50 is under 1 µM.

With `CCC(C)N1CC(S(=O)(=O)NC(=O)Nc2c(C(C)C)cc(F)cc2C(C)C)C1` (stereo unspecified) [US20250115591, Example 143] as the molecule, how does the IC50 read?
The IC50 was under 10 µM.

With `CCN1[C@@H]2CC[C@H]1C[C@H](S(=O)(=O)NC(=O)Nc1c3c(cc4c1CCC4)CCC3)C2` [US20250115591, Example 70] as the molecule, how does the IC50 read?
Its IC50 is under 1 µM.

How did the IC50 turn out when `CC(=O)N1CC(S(=O)(=O)NC(=O)Nc2c3c(cc4c2CCC4)CCC3)C1` [US20250115591, Example 74] was run?
The IC50 was under 10 µM.

How did the IC50 turn out when `CC(=O)N1CCC(S(=O)(=O)NC(=O)Nc2c3c(cc4c2CCC4)CCC3)CC1` [US20250115591, Example 3] was run?
Its IC50 is under 10 µM.

Which IC50 does the source give for `CCN1[C@@H]2CC[C@H]1C[C@@H](S(=O)(=O)NC(=O)Nc1c3c(cc4c1CCC4)CCC3)C2` [US20250115591, Example 52] here?
Its IC50 is under 10 µM.

For `CNC(=N)N1CC(S(=O)(=O)NC(=O)Nc2c3c(cc4c2CCC4)CCC3)C1` [US20250115591, Example 129], which IC50 is on record?
Its IC50 is under 10 µM.

With `COc1cc(-c2ccc3c(c2NC(=O)NS(=O)(=O)c2cn(C(C)C)c(=O)cn2)CCC3)ccn1` [US20250115591, Example 156] as the molecule, how does the IC50 read?
Its IC50 is under 1 µM.

How did the IC50 turn out when `O=C(Nc1c2c(cc3c1CCC3)CCC2)NS(=O)(=O)C1CNC1` [US20250115591, Example 42] was run?
Its IC50 is under 10 µM.

For `N=C(N)N1CC(S(=O)(=O)NC(=O)Nc2c3c(cc4c2CCC4)CCC3)C1` [US20250115591, Example 113], which IC50 is on record?
Its IC50 is under 1 µM.

Which IC50 does the source give for `O=C(Nc1c2c(cc3c1CCC3)CCC2)NS(=O)(=O)C1CCNC1` (stereo unspecified) [US20250115591, Example 55] here?
Its IC50 is under 10 µM.

With `COC(=O)CN1CC(S(=O)(=O)NC(=O)Nc2c3c(cc4c2CCC4)CCC3)C1` [US20250115591, Example 78] as the molecule, how does the IC50 read?
The IC50 was under 10 µM.

For `CNC(=O)N1CCC(S(=O)(=O)NC(=O)Nc2c3c(cc4c2CCC4)CCC3)CC1` [US20250115591, Example 28], which IC50 is on record?
Its IC50 is under 10 µM.

With `CN(C(=O)OC(C)(C)C)/C(=N\C(=O)OC(C)(C)C)N1CC(S(=O)(=O)NC(=O)Nc2c3c(cc4c2CCC4)CCC3)C1` [US20250115591, Example 127] as the molecule, how does the IC50 read?
The IC50 was under 10 µM.

How did the IC50 turn out when `CC(C)(C)OC(=O)N1CC(N2CC(S(=O)(=O)NC(=O)Nc3c4c(cc5c3CCC5)CCC4)C2)C1` [US20250115591, Example 106] was run?
The IC50 was under 10 µM.

`CCN1CCC(S(=O)(=O)NC(=O)Nc2c3c(cc4c2CCC4)CCC3)C1` (stereo unspecified) [US20250115591, Example 37] was tested. Which IC50 did it give?
Its IC50 is under 1 µM.

For `CC(C)(C)OC(=O)/N=C(/NC(=O)OC(C)(C)C)N1CC(S(=O)(=O)NC(=O)Nc2c3c(cc4c2CCC4)CCC3)C1` [US20250115591, Example 112], which IC50 is on record?
The IC50 was under 10 µM.
